Laboratory results as given in the Kinase Knowledgebase extract (Sharma et al. 2016).

Biological target: EGFR (UniProt P00533)
Sequence (P00533 whole entry, looked up): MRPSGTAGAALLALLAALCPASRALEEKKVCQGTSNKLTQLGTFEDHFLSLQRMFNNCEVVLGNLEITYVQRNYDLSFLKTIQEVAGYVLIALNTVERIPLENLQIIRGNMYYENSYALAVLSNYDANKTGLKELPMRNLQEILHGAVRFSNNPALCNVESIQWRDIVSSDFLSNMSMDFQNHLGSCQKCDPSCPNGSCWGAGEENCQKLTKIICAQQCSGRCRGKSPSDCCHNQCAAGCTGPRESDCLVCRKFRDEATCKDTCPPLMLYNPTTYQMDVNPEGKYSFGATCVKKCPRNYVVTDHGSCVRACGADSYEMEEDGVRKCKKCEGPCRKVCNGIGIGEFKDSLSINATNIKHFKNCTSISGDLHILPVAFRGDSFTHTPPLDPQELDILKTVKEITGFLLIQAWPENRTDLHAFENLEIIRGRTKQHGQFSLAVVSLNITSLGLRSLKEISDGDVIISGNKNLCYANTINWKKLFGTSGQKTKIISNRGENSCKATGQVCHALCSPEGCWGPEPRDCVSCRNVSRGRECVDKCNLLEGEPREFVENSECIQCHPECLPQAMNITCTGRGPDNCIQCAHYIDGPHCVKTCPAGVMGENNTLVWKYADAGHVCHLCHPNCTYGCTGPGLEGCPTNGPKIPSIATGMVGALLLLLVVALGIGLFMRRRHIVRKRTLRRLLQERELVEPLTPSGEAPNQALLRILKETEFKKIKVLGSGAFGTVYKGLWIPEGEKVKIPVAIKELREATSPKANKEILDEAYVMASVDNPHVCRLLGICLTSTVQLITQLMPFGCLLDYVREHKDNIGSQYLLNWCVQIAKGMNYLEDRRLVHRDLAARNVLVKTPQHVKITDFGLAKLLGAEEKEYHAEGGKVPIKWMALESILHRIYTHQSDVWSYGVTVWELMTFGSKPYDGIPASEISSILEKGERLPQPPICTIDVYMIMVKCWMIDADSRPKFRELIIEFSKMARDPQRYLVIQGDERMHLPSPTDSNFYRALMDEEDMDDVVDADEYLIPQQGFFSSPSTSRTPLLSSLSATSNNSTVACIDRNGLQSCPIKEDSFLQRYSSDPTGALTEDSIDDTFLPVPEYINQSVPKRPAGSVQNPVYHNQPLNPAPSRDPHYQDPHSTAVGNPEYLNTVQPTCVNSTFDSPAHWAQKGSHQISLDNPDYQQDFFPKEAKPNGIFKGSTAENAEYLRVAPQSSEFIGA

`COc1cc2c(Nc3ccc(F)c(Cl)c3F)ncnc2cc1OC[C@H]1CN2CCOC[C@H]2CO1` and `COc1cc2c(Nc3ccc(F)c(Cl)c3F)ncnc2cc1OC[C@@H]1CN2CCOC[C@H]2CO1` cannot be ordered by IC50: less than 50 nM for the first, less than 50 nM for the second.

`COc1cc2c(Nc3cccc(Cl)c3C)ncnc2cc1OCC1CN(C)CCO1` (stereo not given) and `COc1cc2c(Nc3ccc(Cl)c(Cl)c3C)ncnc2cc1OCC1CN(C)CCO1` (stereo not given) cannot be ordered by IC50: less than 50 nM for the first, less than 50 nM for the second.

`COc1cc2c(Nc3ccc(Cl)c(Cl)c3)ncnc2cc1OCC1CN(C2CCCC2)CCO1` (stereo not given) and `COc1cc2c(Nc3ccc(Cl)c(Cl)c3)ncnc2cc1OCC1CN(C2CCC2)CCO1` (stereo not given) cannot be ordered by IC50: less than 50 nM for the first, less than 50 nM for the second.

`CCCCc1ccc(C(=O)N2CCOC(COc3cc4ncnc(Nc5ccc(Cl)c(Cl)c5)c4cc3OC)C2)cc1` (stereo not given) and `COc1cc2c(Nc3ccc(Cl)c(Cl)c3)ncnc2cc1OCC1CN(C(=O)Cc2ccc(Cl)cc2)CCO1` (stereo not given) cannot be ordered by IC50: less than 50 nM for the first, less than 50 nM for the second.

`COc1cc2c(Nc3ccc(Cl)c(Cl)c3)ncnc2cc1OCC1CN(C(N)=NC#N)CCCO1` (stereo not given) and `CCNC(=NC#N)N1CCOC(COc2cc3ncnc(Nc4ccc(Cl)c(Cl)c4)c3cc2OC)C1` (stereo not given) cannot be ordered by IC50: less than 50 nM for the first, less than 50 nM for the second.

`COc1cc2c(Nc3ccc(Cl)c(Cl)c3)ncnc2cc1OCC1CN(CCCC#N)CCO1` (stereo not given) and `CCN1CCOC(COc2cc3ncnc(Nc4ccc(Cl)c(Cl)c4)c3cc2OC)C1` (stereo not given) cannot be ordered by IC50: less than 50 nM for the first, less than 50 nM for the second.

`COc1cc2c(Nc3ccc(Cl)c(Cl)c3)ncnc2cc1O[C@H]1CO[C@H]2[C@@H]1OC[C@@H]2OC` and `COc1cc2c(Nc3cccc(Cl)c3F)ncnc2cc1O[C@H]1CO[C@H]2[C@@H]1OC[C@@H]2OC` cannot be ordered by IC50: less than 50 nM for the first, less than 50 nM for the second.

`COc1cc2c(Nc3cc(F)cc(F)c3)ncnc2cc1O[C@@H]1CO[C@@H]2[C@H]1OC[C@H]2F` and `COc1cc2c(Nc3ccc(F)cc3F)ncnc2cc1O[C@@H]1CO[C@@H]2[C@H]1OC[C@H]2F` cannot be ordered by IC50: less than 50 nM for the first, less than 50 nM for the second.

First: COc1cc2c(Nc3ccc(Cl)c(Cl)c3)ncnc2cc1OCc1nc(-c2ccc(C(C)(C)C)cc2)no1
Second: COc1cc2c(Nc3ccc(Cl)c(Cl)c3)ncnc2cc1OCc1nc([C@@H]2CCCN2)no1
The IC50 of the first is higher: 50 to 1000 nM for the first, less than 50 nM for the second.

`COc1cc2c(Nc3ccc(Br)c(Cl)c3)ncnc2cc1O[C@H]1CO[C@@H]2[C@H]1OC[C@@H]2OC(C)=O` and `COc1cc2c(Nc3ccc(Br)c(Cl)c3)ncnc2cc1O[C@H]1CO[C@@H]2[C@H]1OC[C@@H]2O` cannot be ordered by IC50: less than 50 nM for the first, less than 50 nM for the second.

`COc1cc2c(Nc3ccc(Br)c(Cl)c3)ncnc2cc1O[C@H]1CO[C@@H]2[C@H]1OC[C@@H]2N` and `COc1cc2c(Nc3ccc(Br)c(Cl)c3)ncnc2cc1O[C@H]1CO[C@@H]2[C@H]1OC[C@@H]2S(C)(=O)=O` cannot be ordered by IC50: less than 50 nM for the first, less than 50 nM for the second.

`COc1cc2c(Nc3cc(Cl)c(Br)cc3F)ncnc2cc1OC[C@@H]1CN2CCOC[C@H]2CO1` and `COc1cc2c(Nc3ccc(Br)c(Cl)c3Cl)ncnc2cc1OC[C@H]1CN2CCOC[C@H]2CO1` cannot be ordered by IC50: less than 50 nM for the first, less than 50 nM for the second.

`COc1cc2c(Nc3ccc(Br)cc3F)ncnc2cc1O[C@@H]1CO[C@@H]2[C@H]1OC[C@H]2F` and `COc1cc2c(Nc3ccccc3F)ncnc2cc1O[C@@H]1CO[C@@H]2[C@H]1OC[C@H]2F` cannot be ordered by IC50: less than 50 nM for the first, less than 50 nM for the second.

`COc1cc2c(Nc3ccc(Cl)c(Cl)c3)ncnc2cc1OCc1csc(C2CCCN(C)C2)n1` (stereo not given) and `COc1cc2c(Nc3ccc(Cl)c(Cl)c3)ncnc2cc1OCc1csc(C2CCCCN2C)n1` (stereo not given) cannot be ordered by IC50: less than 50 nM for the first, less than 50 nM for the second.

`CCS(=O)(=O)N1CCOC(COc2cc3ncnc(Nc4ccc(Cl)c(Cl)c4)c3cc2OC)C1` (stereo not given) and `C#CCN1CCOC(COc2cc3ncnc(Nc4ccc(Cl)c(Cl)c4)c3cc2OC)C1` (stereo not given) cannot be ordered by IC50: less than 50 nM for the first, less than 50 nM for the second.

`COc1cc2c(Nc3ccc(Cl)c(Cl)c3)ncnc2cc1OCC1CCCO1` (stereo not given) and `COc1cc2c(Nc3ccc(Cl)c(Cl)c3)ncnc2cc1OCC1CN(CC2CC2)CCCO1` (stereo not given) cannot be ordered by IC50: less than 50 nM for the first, less than 50 nM for the second.

`COc1cc2c(Nc3ccc(Br)c(Cl)c3)ncnc2cc1O[C@H]1COC[C@H]1OC` and `CCN(CC)[C@H]1CO[C@@H]2[C@H]1OC[C@@H]2Oc1cc2ncnc(Nc3ccc(Br)c(Cl)c3)c2cc1OC` cannot be ordered by IC50: less than 50 nM for the first, less than 50 nM for the second.

`COc1cc2c(Nc3ccc(Cl)c(Cl)c3)ncnc2cc1OCCN1CCCC1` and `COc1cc2c(Nc3ccc(Cl)c(Cl)c3)ncnc2cc1OCCC1CCCCC1` cannot be ordered by IC50: less than 50 nM for the first, less than 50 nM for the second.

`COc1cc(Nc2ncnc3cc(O[C@@H]4CO[C@@H]5[C@H]4OC[C@H]5F)c(OC)cc23)c(OC)cc1Cl` and `COc1cc2c(Nc3cccc(Cl)c3F)ncnc2cc1O[C@H]1CO[C@@H]2[C@H]1OC[C@@H]2F` cannot be ordered by IC50: less than 50 nM for the first, less than 50 nM for the second.

`COc1cc2c(Nc3ccc(Cl)c(Cl)c3)ncnc2cc1OCC1CN(C(=O)C2CCCC2)CCO1` (stereo not given) and `COc1cc2c(Nc3ccc(Cl)c(Cl)c3)ncnc2cc1OCC1CN(C(=O)C(C)(C)C)CCO1` (stereo not given) cannot be ordered by IC50: less than 50 nM for the first, less than 50 nM for the second.

`COc1cc2c(Nc3ccc(Cl)c(Cl)c3)ncnc2cc1OC1C[C@@H]2CN(C)C[C@@H]2C1` (stereo not given in full) and `COc1cc2c(Nc3ccc(Cl)c(Cl)c3)ncnc2cc1OCCC1CC2CCC(C1)N2C` (stereo not given) cannot be ordered by IC50: less than 50 nM for the first, less than 50 nM for the second.

`COc1cc2c(Nc3ccc(Cl)c(Cl)c3)ncnc2cc1OCC1CN(C(=O)CCC(C)C)CCO1` (stereo not given) and `CCCC(CCC)C(=O)N1CCOC(COc2cc3ncnc(Nc4ccc(Cl)c(Cl)c4)c3cc2OC)C1` (stereo not given) cannot be ordered by IC50: less than 50 nM for the first, less than 50 nM for the second.

`COc1cc2c(Nc3cc(Cl)c(Cl)cc3F)ncnc2cc1OC[C@@H]1CN2CCC[C@H]2CO1` and `COc1cc2c(Nc3ccc(Cl)c(Cl)c3)ncnc2cc1OC[C@H]1CN2CCC[C@H]2CO1` cannot be ordered by IC50: less than 50 nM for the first, less than 50 nM for the second.

`COc1cc2c(Nc3ccc(Cl)c(Cl)c3)ncnc2cc1OCC1CN(Cc2ccccn2)CCO1` (stereo not given) and `COc1cc2c(Nc3ccc(Cl)c(Cl)c3)ncnc2cc1OCC1CN(c2ccncc2)CCO1` (stereo not given) cannot be ordered by IC50: less than 50 nM for the first, less than 50 nM for the second.

`COc1cc2c(Nc3ccc(Cl)c(Cl)c3)ncnc2cc1OCC1CN(C(=O)c2cccnc2Cl)CCO1` (stereo not given) and `COC(=O)CCCCN1CCOC(COc2cc3ncnc(Nc4ccc(Cl)c(Cl)c4)c3cc2OC)C1` (stereo not given) cannot be ordered by IC50: less than 50 nM for the first, less than 50 nM for the second.

`COc1cc2c(Nc3ccc(Cl)c(Cl)c3F)ncnc2cc1OC[C@H]1C[C@@H]2CN(C)C[C@@H]2C1` and `COc1cc2c(Nc3cc(Cl)c(Br)cc3F)ncnc2cc1OC[C@H]1C[C@@H]2CN(C)C[C@@H]2C1` cannot be ordered by IC50: less than 50 nM for the first, less than 50 nM for the second.

`COc1cc2c(Nc3ccc(Cl)c(Cl)c3N3CCN(C)CC3)ncnc2cc1O[C@H]1CO[C@@H]2[C@H]1OC[C@@H]2F` and `COc1cc2c(Nc3ccc(C(F)(F)F)cc3Br)ncnc2cc1O[C@@H]1CO[C@@H]2[C@H]1OC[C@H]2F` cannot be ordered by IC50: less than 50 nM for the first, less than 50 nM for the second.

`COc1cc2c(Nc3ccc(Cl)c(Cl)c3)ncnc2cc1OCC1CN(C(=NC#N)N2CCCCC2)CCO1` (stereo not given) and `COCCNC(=NC#N)N1CCOC(COc2cc3ncnc(Nc4ccc(Cl)c(Cl)c4)c3cc2OC)C1` (stereo not given) cannot be ordered by IC50: less than 50 nM for the first, less than 50 nM for the second.

`COc1cc2c(Nc3ccc(Br)c(Cl)c3)ncnc2cc1O[C@H]1CO[C@H]2[C@@H]1OC[C@]2(O)C(F)(F)F` and `COc1cc2c(Nc3ccc(Cl)c(Cl)c3)ncnc2cc1OCCC1OCCO1` cannot be ordered by IC50: less than 50 nM for the first, less than 50 nM for the second.

`COc1cc2c(Nc3ccc(Br)cc3Br)ncnc2cc1OCC1CN(C)CCO1` (stereo not given) and `COc1cc2c(Nc3ccc(Br)c(Cl)c3F)ncnc2cc1OCC1CN(C)CCO1` (stereo not given) cannot be ordered by IC50: less than 50 nM for the first, less than 50 nM for the second.

`COc1cc2c(Nc3ccc(Cl)c(Cl)c3)ncnc2cc1OCc1csc(N2CCOCC2)n1` and `COc1cc2c(Nc3ccc(Cl)c(Cl)c3)ncnc2cc1OCc1nc(N2CCOCC2)no1` cannot be ordered by IC50: less than 50 nM for the first, less than 50 nM for the second.

`COc1cc2c(Nc3ccc(Cl)c(Cl)c3)ncnc2cc1OCc1nc(CN2CCN(C)CC2)cs1` and `COc1cc2c(Nc3ccc(Cl)c(Cl)c3)ncnc2cc1OCc1nc(N2CCN(C)CC2)no1` cannot be ordered by IC50: less than 50 nM for the first, less than 50 nM for the second.

For `CCOc1cc2c(Nc3ccc(Cl)c(Cl)c3)ncnc2cc1OCC1CNCCO1` (stereo not given), the IC50 was less than 50 nM.
